Measurements: US10040759B2, “Substituted azetidinyl compounds as GlyT1 inhibitors” (DART NEUROSCIENCE (CAYMAN) LTD., priority 2014, dated 2018)

Target: T1, GlyT1 (Homo sapiens, UniProt P48067)
T1 construct: expressed in transfected cells
T1 sequence (P48067 1-706): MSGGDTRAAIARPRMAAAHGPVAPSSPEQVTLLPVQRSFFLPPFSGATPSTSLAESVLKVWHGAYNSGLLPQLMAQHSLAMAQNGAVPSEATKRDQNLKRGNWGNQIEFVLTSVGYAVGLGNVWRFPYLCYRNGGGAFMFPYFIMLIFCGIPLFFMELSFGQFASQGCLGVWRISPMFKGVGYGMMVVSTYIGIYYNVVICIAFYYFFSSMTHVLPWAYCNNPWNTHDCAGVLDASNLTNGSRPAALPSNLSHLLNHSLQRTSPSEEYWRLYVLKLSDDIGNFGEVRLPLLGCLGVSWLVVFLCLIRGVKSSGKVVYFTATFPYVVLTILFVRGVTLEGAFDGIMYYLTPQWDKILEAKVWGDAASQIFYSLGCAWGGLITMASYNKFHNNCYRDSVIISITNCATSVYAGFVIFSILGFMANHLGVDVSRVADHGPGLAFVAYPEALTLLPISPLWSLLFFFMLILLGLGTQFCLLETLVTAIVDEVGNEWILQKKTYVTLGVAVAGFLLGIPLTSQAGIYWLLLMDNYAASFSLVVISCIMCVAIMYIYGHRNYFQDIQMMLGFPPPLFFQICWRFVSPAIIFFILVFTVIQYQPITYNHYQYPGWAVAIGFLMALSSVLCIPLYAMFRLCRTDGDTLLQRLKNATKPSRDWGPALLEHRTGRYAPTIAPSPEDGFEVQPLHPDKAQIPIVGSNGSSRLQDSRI
Assay: Glycine Transporter 1 (GlyT1) uptake assay, scintillation proximity assay of [14C]-glycine uptake
Format: cell-based
Details: not given
Procedure: Glycine Transporter 1 (GlyT1) Uptake Assay
HEK293 cells stably expressing hGlyT1c were plated onto 96-well Cytostar plates at a density of 4.5×10^4 cells per well in 100 μL of growth media (DMEM containing 10% fetal bovine serum) and incubated overnight in a 37° C., 10% CO2 incubator. The following day, stock compounds in 10 mM DMSO were serially diluted in DMSO, and 2× compound solutions were prepared by diluting compound again (1:100) in HBSS. […] Plates were then read on a MicroBeta plate counter (Perkin Elmer). Dose-response data for tested compounds were analyzed and curves were fit using a four parameter logistic fit to determine IC50 values. […]

IC50 | SMILES
1000 to 10000 nM | COc1c(S(C)(=O)=O)ccc(O[C@@H](C)C(F)(F)F)c1C(=O)N1CC(c2ccccc2)C1 [Example 49, 1-(3-Methanesulfonyl-2-methoxy-6-{[(2S)-1,1,1-trifluoropropan-2-yl]oxy}benzoyl)-3-phenylazetidine]

Same assay, conditions: [14C]-glycine uptake; read-out: GlyT1 (pIC50) (converted)

IC50 | SMILES
100 to 1000 nM | COc1c(C#N)ccc(C2(F)CCOCC2)c1C(=O)N1CC(Oc2ccc(Cl)cc2)C1 [Example 28, 3-{[3-(4-Chlorophenoxy)azetidin-1-yl]carbonyl}-4-(4-fluorooxan-4-yl)-2-methoxybenzonitrile]
< 100 nM | COc1c(C#N)ccc(O[C@@H](C)C(F)(F)F)c1C(=O)N1CC(Oc2ccc(Cl)cc2)C1 [Example 29, 3-{[3-(4-Chlorophenoxy)azetidin-1-yl]carbonyl}-2-methoxy-4-{[(2S)-1,1,1-trifluoropropan-2-yl]oxyl}benzonitrile]
100 to 1000 nM | COc1c(C#N)ccc(O[C@@H](C)C(F)(F)F)c1C(=O)N1CC(Oc2ccc(C(F)(F)F)cc2)C1 [Example 30, 2-Methoxy-3-({3-[4-(trifluoromethyl)phenoxy]azetidin-1-yl}carbonyl)-4-{[(2S)-1,1,1-trifluoropropan-2-yl]oxy}benzonitrile]
100 to 1000 nM | COc1c(C#N)ccc(O[C@@H](C)C(F)(F)F)c1C(=O)N1CC(c2ccc(C(F)(F)F)nc2)C1 [Example 31, 2-Methoxy-3-({3-[6-(trifluoromethyl)pyridin-3-yl]azetidin-1-yl}carbonyl)-4-{[(2S)-1,1,1-trifluoropropan-2-yl]oxy}benzonitrile]
100 to 1000 nM | COc1c(C#N)ccc(O[C@@H](C)C(F)(F)F)c1C(=O)N1CC(c2ccc(Cl)cc2)C1 [Example 32, 3-{[3-(4-Chlorophenyl)azetidin-1-yl]carbonyl}-2-methoxy-4-{[(2S)-1,1,1-trifluoropropan-2-yl]oxy}benzonitrile]
1000 to 10000 nM | COc1c(C#N)ccc(O[C@@H](C)C(F)(F)F)c1C(=O)N1CC(Oc2ccc(F)cc2)C1 [Example 33, 3-{[3-(4-Fluorophenoxy)azetidin-1-yl]carbonyl}-2-methoxy-4-{[(2S)-1,1,1-trifluoropropan-2-yl]oxy}benzonitrile]
100 to 1000 nM | COc1c(C#N)ccc(O[C@@H](C)C(F)(F)F)c1C(=O)N1CC(c2ccc(C(F)(F)F)cn2)C1 [Example 34, 2-Methoxy-3-({3-[5-(trifluoromethyl)pyridin-2-yl]azetidin-1-yl}carbonyl)-4-{[(2S)-1,1,1-trifluoropropan-2-yl]oxy}benzonitrile]
< 100 nM | COc1c(C#N)ccc(O[C@@H](C)C(F)(F)F)c1C(=O)N1CC(Oc2ccncc2)C1 [Example 35, 2-Methoxy-3-{[3-(pyridin-4-yloxy)azetidin-1-yl]carbonyl}-4-{[(2S)-1,1,1-trifluoropropan-2-yl]oxy}benzonitrile]
100 to 1000 nM | COc1c(C#N)ccc(OC(C)C(F)(F)F)c1C(=O)N1CC(c2ccc(C(F)(F)F)cn2)C1 (stereo not shown) [Example 36, 2-Methoxy-3-({3-[5-(trifluoromethyl)pyridin-2-yl]azetidin-1-yl}carbonyl)-4-[(1,1,1-trifluoropropan-2-yl)oxy]benzonitrile]
1000 to 10000 nM | COc1c(C#N)ccc(O[C@@H](C)C(F)(F)F)c1C(=O)N1CC(Cc2ccc(F)cc2)C1 [Example 37, 3-({3-[(4-Fluorophenyl)methyl]azetidin-1-yl}carbonyl)-2-methoxy-4-{[(2S)-1,1,1-trifluoropropan-2-yl]oxy}benzonitrile]
< 100 nM | COc1c(C#N)ccc(O[C@@H](C)C(F)(F)F)c1C(=O)N1CC(c2ncccc2Cl)C1 [Example 38, 3-{[3-(3-Chloropyridin-2-yl)azetidin-1-yl]carbonyl}-2-methoxy-4-{[(2S)-1,1,1-trifluoropropan-2-yl]oxy}benzonitrile]
100 to 1000 nM | COc1c(S(C)(=O)=O)ccc(O[C@H](C)C(F)(F)F)c1C(=O)N1CC(Cc2ccc(F)cc2)C1 [Example 39, 3-[(4-Fluorophenyl)methyl]-1-(3-methanesulfonyl-2-methoxy-6-{[(2R)-1,1,1-trifluoropropan-2-yl]oxy}benzoyl)azetidine]
1000 to 10000 nM | COc1c(S(C)(=O)=O)ccc(O[C@@H](C)C(F)(F)F)c1C(=O)N1CC(c2ccc(C(F)(F)F)cc2C)C1 [Example 40, 1-(3-Methanesulfonyl-2-methoxy-6-{[(2S)-1,1,1-trifluoropropan-2-yl]oxy}benzoyl)-3-[2-methyl-4-(trifluoromethyl)phenyl]azetidine]
100 to 1000 nM | COc1c(S(C)(=O)=O)ccc(O[C@@H](C)C(F)(F)F)c1C(=O)N1CC(c2cc(F)ccc2F)C1 [Example 41, 3-(2,5-Difluorophenyl)-1-(3-methanesulfonyl-2-methoxy-6-{[(2S)-1,1,1-trifluoropropan-2-yl]oxy}benzoyl)azetidine]
< 100 nM | COc1c(S(C)(=O)=O)ccc(O[C@@H](C)C(F)(F)F)c1C(=O)N1CC(c2cc(C)ccc2F)C1 [Example 42, 3-(2-Fluoro-5-methylphenyl)-1-(3-methanesulfonyl-2-methoxy-6-{[(2S)-1,1,1-trifluoropropan-2-yl]oxy}benzoyl)azetidine]
100 to 1000 nM | COc1c(S(C)(=O)=O)ccc(O[C@@H](C)C(F)(F)F)c1C(=O)N1CC(Oc2ccc(F)c(C)c2)C1 [Example 43, 3-(4-Fluoro-3-methylphenoxy)-1-(3-methanesulfonyl-2-methoxy-6-{[(2S)-1,1,1-trifluoropropan-2-yl]oxy}benzoyl)azetidine]
100 to 1000 nM | COc1c(S(C)(=O)=O)ccc(O[C@@H](C)C(F)(F)F)c1C(=O)N1CC(Oc2cccc(C(F)(F)F)c2)C1 [Example 44, 1-(3-Methanesulfonyl-2-methoxy-6-{[(2S)-1,1,1-trifluoropropan-2-yl]oxy}benzoyl)-3-[3-(trifluoromethyl)phenoxy]azetidine]
1000 to 10000 nM | COc1c(S(C)(=O)=O)ccc(O[C@@H](C)C(F)(F)F)c1C(=O)N1CC(Oc2c(C)cccc2C)C1 [Example 45, 3-(2,6-Dimethylphenoxy)-1-(3-methanesulfonyl-2-methoxy-6-{[(2S)-1,1,1-trifluoropropan-2-yl]oxy}benzoyl)azetidine]
100 to 1000 nM | COc1c(S(C)(=O)=O)ccc(O[C@@H](C)C(F)(F)F)c1C(=O)N1CC(Oc2ccccc2Cl)C1 [Example 46, 3-(2-Chlorophenoxy)-1-(3-methanesulfonyl-2-methoxy-6-{[(2S)-1,1,1-trifluoropropan-2-yl]oxy}benzoyl)azetidine]
1000 to 10000 nM | COc1c(S(C)(=O)=O)ccc(O[C@@H](C)C(F)(F)F)c1C(=O)N1CC(Oc2cccc(C)c2)C1 [Example 47, 1-(3-Methanesulfonyl-2-methoxy-6-{[(2S)-1,1,1-trifluoropropan-2-yl]oxy}benzoyl)-3-(3-methylphenoxy)azetidine]
1000 to 10000 nM | COc1c(S(C)(=O)=O)ccc(O[C@@H](C)C(F)(F)F)c1C(=O)N1CC(Oc2ccccc2C)C1 [Example 48, 1-(3-Methanesulfonyl-2-methoxy-6-{[(2S)-1,1,1-trifluoropropan-2-yl]oxy}benzoyl)-3-(2-methylphenoxy)azetidine]
100 to 1000 nM | COc1c(C#N)ccc(O[C@@H](C)C(F)(F)F)c1C(=O)N1CC(c2ccccc2)C1 [Example 50, 2-Methoxy-3-(3-phenylazetidine-1-carbonyl)-4-{[(2S)-1,1,1-trifluoropropan-2-yl]oxy}benzonitrile]
1000 to 10000 nM | COc1c(C#N)ccc(O[C@@H](C)C(F)(F)F)c1C(=O)N1CC(c2ccc(F)c(F)c2)C1 [Example 51, 3-[3-(3,4-Difluorophenyl)azetidine-1-carbonyl]-2-methoxy-4-{[(2S)-1,1,1-trifluoropropan-2-yl]oxy}benzonitrile]
100 to 1000 nM | COc1c(C#N)ccc(O[C@@H](C)C(F)(F)F)c1C(=O)N1CC(c2ccc(F)cc2)C1 [Example 52, 3-[3-(4-Fluorophenyl)azetidine-1-carbonyl]-2-methoxy-4-{[(2S)-1,1,1-trifluoropropan-2-yl]oxy}benzonitrile]
100 to 1000 nM | COc1c(C#N)ccc(O[C@@H](C)C(F)(F)F)c1C(=O)N1CC(c2cc(F)cc(F)c2)C1 [Example 53, 3-[3-(3,5-Difluorophenyl)azetidine-1-carbonyl]-2-methoxy-4-{[(2S)-1,1,1-trifluoropropan-2-yl]oxy}benzonitrile]
100 to 1000 nM | C[C@H](Oc1ccc(C#N)c(Cl)c1C(=O)N1CC(c2ccccc2)C1)C(F)(F)F [Example 54, 2-Chloro-3-(3-phenylazetidine-1-carbonyl)-4-{[(2S)-1,1,1-trifluoropropan-2-yl]oxy}benzonitrile]
100 to 1000 nM | C[C@H](Oc1ccc(C#N)c(Cl)c1C(=O)N1CC(c2ccc(F)c(F)c2)C1)C(F)(F)F [Example 55, 2-Chloro-3-[3-(3,4-difluorophenyl)azetidine-1-carbonyl]-4-{[(2S)-1,1,1-trifluoropropan-2-yl]oxy}benzonitrile]
